According to ChEMBL document CHEMBL5634158, “From garden to lab: C-3 chemical modifications of tomatidine unveil broad-spectrum ATP synthase inhibitors to combat bacterial resistance” (Eur J Med Chem, 2023):

How the values were obtained:
[1] = tested on: Escherichia coli; experiment: Antibacterial activity against Escherichia coli ATCC 25922 assessed as reduction in microbial growth incubated for 20 hrs under aerobic condition by CLSI based broth microdilution method; assay type: functional
[2] = tested on: Staphylococcus aureus; experiment: Antibacterial activity against Staphylococcus aureus ATCC 29213 assessed as reduction in microbial growth incubated for 20 hrs under aerobic condition by CLSI based broth microdilution method; assay type: functional

| SMILES | MIC [1] | MIC [2] |
| --- | --- | --- |
| C[C@H]1CC[C@]2(NC1)O[C@H]1C[C@H]3[C@@H]4CC[C@H]5CC(NC[C@@H](O)CO)CC[C@]5(C)[C@H]4CC[C@]3(C)[C@H]1[C@@H]2C (mixture of isomers) | > 128 µg/mL | 64 µg/mL |
| C[C@H]1CC[C@]2(NC1)O[C@H]1C[C@H]3[C@@H]4CC[C@H]5CC(NCCO)CC[C@]5(C)[C@H]4CC[C@]3(C)[C@H]1[C@@H]2C (mixture of isomers) | > 128 µg/mL | > 128 µg/mL |
| C[C@H]1CC[C@]2(NC1)O[C@H]1C[C@H]3[C@@H]4CC[C@H]5CC(NC[C@H](N)Cc6ccccc6)CC[C@]5(C)[C@H]4CC[C@]3(C)[C@H]1[C@@H]2C (mixture of isomers) | 32 µg/mL | 4 µg/mL |
| C[C@H]1CC[C@]2(NC1)O[C@H]1C[C@H]3[C@@H]4CC[C@H]5CC(NC[C@@H](N)Cc6ccc([N+](=O)[O-])cc6)CC[C@]5(C)[C@H]4CC[C@]3(C)[C@H]1[C@@H]2C (mixture of isomers) | 64 µg/mL | 2 µg/mL |
| C[C@H]1CC[C@]2(NC1)O[C@H]1C[C@H]3[C@@H]4CC[C@H]5CC(NC[C@@H](N)Cc6cccc(Br)c6)CC[C@]5(C)[C@H]4CC[C@]3(C)[C@H]1[C@@H]2C (mixture of isomers) | 8 µg/mL | 2 µg/mL |
| C[C@H]1CC[C@]2(NC1)O[C@H]1C[C@H]3[C@@H]4CC[C@H]5CC(NCc6ccco6)CC[C@]5(C)[C@H]4CC[C@]3(C)[C@H]1[C@@H]2C (mixture of isomers) | > 128 µg/mL | 32 µg/mL |
| C[C@H]1CC[C@]2(NC1)O[C@H]1C[C@H]3[C@@H]4CC[C@H]5CC(NC[C@@H](N)Cc6cccnc6)CC[C@]5(C)[C@H]4CC[C@]3(C)[C@H]1[C@@H]2C (mixture of isomers) | > 128 µg/mL | 16 µg/mL |
| C[C@H]1CC[C@]2(NC1)O[C@H]1C[C@H]3[C@@H]4CC[C@H]5CC(NC[C@@H](N)Cc6ccccc6Br)CC[C@]5(C)[C@H]4CC[C@]3(C)[C@H]1[C@@H]2C (mixture of isomers) | 32 µg/mL | 4 µg/mL |
| C[C@H]1CC[C@]2(NC1)O[C@H]1C[C@H]3[C@@H]4CC[C@H]5CC(N[C@H]6CCCC[C@@H]6N)CC[C@]5(C)[C@H]4CC[C@]3(C)[C@H]1[C@@H]2C (mixture of isomers) | > 128 µg/mL | 8 µg/mL |

Results, then the compound that gave them:

| MIC [1] | MIC [2] | SMILES |
| --- | --- | --- |
| > 128 µg/mL | > 128 µg/mL | C[C@H]1CC[C@]2(NC1)O[C@H]1C[C@H]3[C@@H]4CC[C@H]5CC(NCc6ccccn6)CC[C@]5(C)[C@H]4CC[C@]3(C)[C@H]1[C@@H]2C (mixture of isomers) |
| 8 µg/mL | 2 µg/mL | C[C@H]1CC[C@]2(NC1)O[C@H]1C[C@H]3[C@@H]4CC[C@H]5CC(NC[C@@H](N)Cc6cn(C)c7ccccc67)CC[C@]5(C)[C@H]4CC[C@]3(C)[C@H]1[C@@H]2C (mixture of isomers) |
| > 128 µg/mL | 8 µg/mL | C[C@H]1CC[C@]2(NC1)O[C@H]1C[C@H]3[C@@H]4CC[C@H]5CC(NCc6ccc(O)cc6)CC[C@]5(C)[C@H]4CC[C@]3(C)[C@H]1[C@@H]2C (mixture of isomers) |
| 64 µg/mL | 4 µg/mL | C[C@H]1CC[C@]2(NC1)O[C@H]1C[C@H]3[C@@H]4CC[C@H]5CC(NC[C@@H](C)N)CC[C@]5(C)[C@H]4CC[C@]3(C)[C@H]1[C@@H]2C (mixture of isomers) |
| > 128 µg/mL | 32 µg/mL | C[C@H]1CC[C@]2(NC1)O[C@H]1C[C@H]3[C@@H]4CC[C@H]5CC(NCCNS(C)(=O)=O)CC[C@]5(C)[C@H]4CC[C@]3(C)[C@H]1[C@@H]2C (mixture of isomers) |
